# Measurements taken from patent US6410029B1, “2-methoxyestradiol-induced apoptosis in cancer cells” (Board of Regents, The University of Texas System, priority 1996, dated 2002).
# Experiments:
# H322 cells (p53 mutated) [1] = assay: Growth assay, H322 cell line; format: cell-based, human
# Protocol: (§1) Non-small cell lung cancer cell lines H460 (wild-type p53), H358 (p53 deleted), and […] (p53 mutant) were obtained from Drs. Adi Gazdar and John Minna. A549 (wild-type p53) was obtained from ATCC (Rockville, Md.). All cell lines were grown in RPMI 1640 media supplemented with 5% heat inactivated fetal bovine serum and maintained at 5% CO2. All the studies were done when the cells were 70% confluent.
# (§2) For cell growth measurements, 5×10^4 cells were plated in each well of six well plates. Control and treated cells were trypsinized and counted using a hemocytotometer. Studies were performed in triplicate.
# (§3) The inventors tested the effect of 2-MeOE2 treatment on the growth characteristics of four different human lung cancer cell lines differing in their p53 status: H3.58 (p53 deleted), H322 (p53 mutated), H460 (wild-type p53), A549 (wild-type p53). […]
# H358 cells (p53 deleted) = assay: Growth assay, H358 cell line; format: cell-based, human
# Protocol: as §1, §2, §3
# lung cancer cell lines = assay: Cell cycle analysis by flow cytometry; format: cell-based, human; settings: PI labeling, FACScan, 48 h treatment
# Protocol: It has been shown that induction of p21 causes p53-mediated G1 arrest and induces apoptosis. […] The cells were labeled with PI and cell cycle was analyzed by FACScan.
# wild-type p53 protein = assay: Western blot analysis of p53 protein, wild-type p53 lung cancer cell lines; format: cell-based, human
# Protocol: (§4) Control and drug treated cells were washed in cold PBS, lysed in Laemmli's sample buffer, and subjected to western blot analysis as described previously (Mukhopadhyay et al., 1995). Blots were probed with Pab 1801 anti-p53 monoclonal antibody (Oncogene Sciences, Uniondale, N.Y.). The blot was further probed with anti-WAF1 monoclonal antibody (p21).
# (§5) Blots were washed in Tris-buffered saline containing 0.1% Tween 20, incubated with horse radish peroxidase conjugated to secondary antibody and specific immunocomplex was detected by enhanced chemiluminescence technique according to the manufacturer's directions (Amersham, Arlington, Ill.). Blots were reprobed with anti-actin monoclonal antibody (Amersham) to show the equal protein loading.
# p21WAF1/CIP1 protein = assay: Western blot with WAF1 monoclonal antibody (p21); format: cell-based, human
# Protocol: as §4, §5
# endothelial cells [2] = settings: read-out: half-maximal inhibitory concentration (IC50); cited from earlier work
# [3] = test system: breast cancer cell line MCF-7; settings: cited from earlier work
# H460 cells [4] = assay: Apoptosis by FACS analysis, H460 cells
# Protocol: (§6) Control and treated cells were collected by trypsinization, washed in PBS and fixed in 70% ethanol overnight. The next day cells were rehydrated in PBS for 30 min, centrifuged, and resuspended in PBS. For DNA analysis, propidium iodide (Sigma) was added at 50 μg/ml, and the cells were incubated in the presence of RNase at 15 μg/ml for 30 min at 37° C. Flow cytometric analysis was carried out in a fluorescence-activated cell sorter (Coulter Epics Elite).
# (§7) Cells also were stained with biotinylated UTP for TUNEL assay to monitor the DNA fragmentation. H460 cells were grown in chamber slides and treated with the drugs and TdT staining was performed as described in Materials and Methods.
# H322 cells (p53 mutated) [5] = assay: Apoptosis by FACS analysis, H322 cells; settings: mutated cell line, after 48 h of 5 μm treatment
# Protocol: as §6, §7
# mutated p53 protein = assay: Western blot analysis of p53 protein, H322 cell line; format: cell-based, human
# Protocol: as §4, §5
# [6] = test system: normal bronchial epithelium; assay: Response of normal bronchial epithelium to 2-MeOE2 treatment; format: cell-based
# p53 mRNA = assay: Northern blot analysis of p53 mRNA; settings: H460, 48 h after treatment
# From the text: Total RNA was isolated from the subconfluent cultures using the guanidinium thiocyanate method (Chomczynsky and Sacchi, 1987). Twenty micrograms of total RNA was electrophoresed in 1.4% agarose/MOPS formaldehyde gel, transferred to nylon membrane and hybridized to a radiolabeled p53 cDNA probe as described previously (Mukhopadyay and Roth, 1993).
# endothelial cells [7] = settings: cited from earlier work
# p53 DNA binding activity = assay: Electrophoretic mobility shift assay (EMSA), p53 DNA binding; format: cell-based, human; settings: H460 cells, 5 μm for 48 h
# Protocol: Electrophoretic mobility shift assays (EMSA) were performed using nuclear extract prepared from the H460 cell line. Nuclear extracts were prepared from untreated control and 2-MeOE2 treated cells. Cells were washed in ice cold PBS and scraped into 0.5 ml nuclei harvesting buffer (10 mM HEPES, pH 7.9; 10 mM KCl; 0.1 mM ETA, 1 mM dithiothretol (DTT), 0.1% NP-40; 0.5 mM phenyl methyl-sulfonyl fluoride; […]; 0.5 mg/ml benzamidine). After 30 min of incubation on ice, lysates were centrifuged for 1 min at 4° C. The nuclear pellet was resuspended in nuclear harvesting buffer containing 0.4 M NaCl and incubated on ice for 1 h. The nuclear extracts were microfuged at 12,000 rpm for 30 min at 4° C. and supernatant was stored at −70° C.
# To perform electrophoretic mobility shift assays (EMSA), 10 μg of nuclear extract was mixed gently with 0.1 mg of poly (dl-dC) and 1 ng of ^32P-end labeled p53 consensus binding oligonucleotide in binding buffer (25 mM HEPES; pH 7.9; 0.5 mMEDTA; 0.5 mMDTT; 1% NP-40; 5% glycerol; 50 mM NaCl) in total reaction volume 20 μl. One microliter of (1 μg) p53 monoclonal antibody DO1 (Santa Cruz Biotechnology Inc., Calif.) was added to the DNA after binding and incubated for another 15 min to show the supershift. DNA-protein complexes were resolved in native 4.5% polyacrylamide gels. […]
# solid tumors = settings: cited from earlier work
# [8] = test system: H460 cells (wild-type p53); assay: Growth assay, H460 cell line; format: cell-based, human
# Protocol: as §1, §2
# The inventors tested the effect of 2-MeOE2 treatment on the growth characteristics of four different human lung cancer cell lines differing in their p53 status: H3.58 (p53 deleted), H322 (p53 mutated), H460 (wild-type p53), A549 (wild-type p53).
# The cells were treated with 5 μM of 2-MeOE2 or 16-epiestriol (another metabolite of estrogen) and growth of the cells was monitored for five days (FIG. 1).
# [9] = test system: A549 cells (wild-type p53); assay: Growth assay, A549 cell line; format: cell-based, human
# A549 cells = assay: Apoptosis by FACS analysis, A549 cells
# Protocol: as §6, §7
# [10] = test system: p53 protein in normal bronchial epithelial cell lines; assay: Western blot analysis of p53 protein, normal bronchial epithelial cell lines; format: cell-based
# Protocol: as §4, §5
# H460 cells [11] = assay: TUNEL assay (TdT staining); format: cell-based, human; settings: H460 cells grown in chamber slides
# Protocol: Terminal deoxynucleotidyl transferase mediated dUTP-biotin nick end labeling (TUNEL) assay was performed as described previously (Fujiwara et al., 1994). […] Cells were incubated in TdT buffer (30 mM Tris Hcl, pH 7.2; 140 mM cacodylate, 1 mM cobalt chloride) and incubated with biotinylated dUTP (Boehringer Mannheim, Indianapolis, Ind.) and 100 U/ml TdT enzyme (Bethesda Research Laboratory) for 1 h at 37° C. The avidin-biotin complex was detected using the Vectastain Elite kit (Vector Laboratory, Burlingame, Calif.), by the diaminobenzidine-H2O2 method.
# [12] = test system: colchicine binding site of the tubulin filaments; settings: MCF-7 cell line; cited from earlier work
# [13] = test system: normal human skin fibroblasts; settings: even at a 100 μm concentration; cited from earlier work
# [14] = dose response studies, after 48 h, lung cancer cell lines
smiles,measurement,setting,value
"COc1cc2c(cc1O)CC[C@@H]1[C@@H]2CC[C@]2(C)[C@@H](O)CC[C@@H]12 [2-MeOE2, 2-methoxyestradiol]",growth inhibitory effect,"H322 cells (p53 mutated) [1]; 5 μM, growth monitored for five days, H322 (p53 mutated)",virtually no growth inhibitory effect
same,cell death during the growth assay,"H322 cells (p53 mutated) [1]; after 48 h, H322, crystal violet staining",only two dead cells
same,growth inhibitory effect,"H358 cells (p53 deleted); 5 μM, growth monitored for five days, H358 (p53 deleted)",virtually no growth inhibitory effect
same,cell death during the growth assay,"H358 cells (p53 deleted); after 48 h, H358, crystal violet staining",only two dead cells
same,G1 arrest (cell cycle analysis),lung cancer cell lines,no evidence of G1 arrest
same,concentration that stimulated p53 to a maximum level,wild-type p53 protein; [14],5 µM
same,increase of wild-type p53 protein levels,"wild-type p53 protein; during 48 h of treatment, lung cancer cell lines carrying wild-type p53",6- to 8 fold
same,increase in p21 protein expression,p21WAF1/CIP1 protein; A549 cell line,3-5 fold
same,increase in p21 protein expression,p21WAF1/CIP1 protein; H460 cell line,3-5 fold
same,concentration that stimulated p21 to a maximum level,p21WAF1/CIP1 protein; [14],5 µM
same,IC50,endothelial cells [2],0.15 µM
same,cytotoxic effect,[3],cytotoxic effect
same,"peak representing apoptotic cells (PI, FACScan)",H460 cells [4]; H460 cell line,A peak representing apoptotic cells appeared
same,"apoptosis (DNA strand breaks, UTP-labeled biotin / FITC-avidin)",H460 cells [4]; H460 cells,had undergone apoptosis
same,apoptotic cell death,H322 cells (p53 mutated) [5],no effect
same,level of the mutated p53 protein,mutated p53 protein,no increase
same,"changes in response to treatment (p53 increase, apoptosis)",[6],did not show the observed changes
same,p53 mRNA levels,p53 mRNA,no change
same,angiogenesis in vitro,endothelial cells [7],inhibits
same,endothelial cell migration,endothelial cells [7]; in vitro,inhibits
same,p53 DNA binding activity in nuclear extract vs untreated control,p53 DNA binding activity,three-fold increase
same,general cytotoxicity in vivo,solid tumors; in vivo studies,not associated with general cytotoxicity
same,capillary formation in solid tumors,"solid tumors; oral administration, mice",potent inhibition
same,growth of solid tumors,"solid tumors; oral administration, mice",reduced growth
same,growth inhibitory effect,"[8]; 5 μM, growth monitored for five days, H460 (wild-type p53)",significant growth inhibitory effect
same,cell death during the growth assay,"[8]; after 48 h, H460, crystal violet staining",significant increase in cell death
same,growth inhibitory effect,"[9]; 5 μM, growth monitored for five days, A549 (wild-type p53)",significant growth inhibitory effect
same,cell death during the growth assay,"[9]; after 48 h, A549, crystal violet staining",significant increase in cell death
same,"peak representing apoptotic cells (PI, FACScan)",A549 cells; A549 cell line,A peak representing apoptotic cells appeared
same,"apoptosis (DNA strand breaks, UTP-labeled biotin / FITC-avidin)",A549 cells; A549 cells,had undergone apoptosis
same,apoptotic cell death,"A549 cells; A549 cells, after 48 h of 5 μm treatment, FACS analysis",~48%
same,level of p53 protein,[10],no increase
same,"DNA fragmentation (TUNEL, TdT staining)",H460 cells [11],many apoptotic bodies
same,binding to tubulin,[12],bind to the colchicine binding site of the tubulin filaments
same,effect on normal human skin fibroblasts,[13],no effect
"C[C@]12CC[C@@H]3c4ccc(O)cc4CC[C@H]3[C@@H]1C[C@H](O)[C@@H]2O [epistriol, 16-epiestriol, reference compound]",G1 arrest (cell cycle analysis),lung cancer cell lines,no evidence of G1 arrest
same,"DNA fragmentation (TUNEL, TdT staining)",H460 cells [11],little DNA fragmentation
